Here are results for one compound from PMC9814779, “A triple farnesoid X receptor and peroxisome proliferator-activated receptor α/δ activator reverses hepatic fibrosis in diet-induced NASH in mice” (Communications Chemistry, 2020).

In the series the test system is FXR- and PPAR-regulated genes in mouse liver. The experiment in a line: Pilot animal experiment: hepatic FXR- and PPAR-regulated mRNA expression. The series is classed as in vivo, mice. The settings on record: single oral dose 10 mg/kg. As for the experimental part:
Nine male RjOrl:Swiss (CD-1) mice (38–41 g body weight, purchased from Janvier Labs, France) were used for the pilot in vivo study. […] Food and water were available ad libitum. The in-life phase was performed by the contract research organization Pharmacelsus (Saarbrücken, Germany). All experimental procedures were approved by and conducted in accordance with the regulations of the local Animal Welfare authorities (Landesamt für Gesundheit und Verbraucherschutz, Abteilung Lebensmittel- und Veterinärwesen, Saarbrücken). Six animals received a single oral dose of 10 mg/kg body weight of 41, and three animals received the vehicle. Water containing 1% hydroxypropyl methylcellulose (HPMC)/Tween 80 (99:1) served as vehicle.
Twelve or 18 hours after test compound application, mice were anesthetized under isoflurane and then sacrificed by cervical dislocation for tissue collection. Complete livers were obtained, immediately snap-frozen, and stored at −80 °C until further evaluation.
Liver tissue samples from mice were used to study the mRNA expression of FXR- and PPAR-regulated genes. To homogenize the tissue samples for qRT-PCR analysis, one-third of each liver was placed on a Falcon Cell Strainer with 40-μm pore size (BD Bioscience, Erembodegem, Belgium) in a 50-mL Falcon tube. Every tissue was rinsed with PBS buffer containing 10% FCS, penicillin (100 U/mL), and streptomycin (100 μg/mL) and pressed through the cell strainer until 5 mL cell suspension had been collected. The samples were centrifuged at 1200 rpm for 10 min at 4 °C. […] Two micrograms per sample of the extracted RNA were reverse-transcribed into cDNA using the High-Capacity cDNA Reverse Transcription Kit (4368814, Thermo Fischer Scientific, Inc.) according to the manufacturer’s protocol. mRNA expression was studied by quantitative real-time PCR analysis with a StepOnePlus System (Applied Biosystems) based on the 2^−ΔCT method (Supplementary Fig. 6) or the 2^−ΔΔCT method (Fig. 6) using Power SYBR Green PCR Master Mix (Life Technologies). […]

SMILES strings stand for the structures.

On to `CC(C)(C)c1ccc(C(=O)Nc2cccc(CCC(=O)O)c2)c(NC(=O)c2ccc(-c3ccco3)cc2)c1` [compound 41, 3-(3-[4-{tert-Butyl}-2-{4-(2-furyl)}benzamido]phenyl)propanoic acid], for which the “adverse effects, behaviour” value is “no adverse effects”. Also, the “hepatic expression of BSEP, SHP, LPL, PCK and CRAT, 12 h” value (12 h after treatment, vs. vehicle) is “increased”. The “effect on FXR- and PPAR-regulated gene expression in livers, 18 h” value (after 18 h) is on record as “significantly reduced”.
